Drawing on patent US20090111778A1, “2-Keto-Oxazoles as Modulators of Fatty Acid Amide Hydrolase” (priority 2005, published 2009), this text covers IC50 for 29 molecules.

Counter-ions that a name gives are not always drawn.

Usually IC50 stands for the concentration that inhibits the measured activity by half.

The target in experiment [1] is T1, rat FAAH (Rattus norvegicus, UniProt P97612).
T1 construct: expressed in transfected cells
T1 sequence (P97612 1-579): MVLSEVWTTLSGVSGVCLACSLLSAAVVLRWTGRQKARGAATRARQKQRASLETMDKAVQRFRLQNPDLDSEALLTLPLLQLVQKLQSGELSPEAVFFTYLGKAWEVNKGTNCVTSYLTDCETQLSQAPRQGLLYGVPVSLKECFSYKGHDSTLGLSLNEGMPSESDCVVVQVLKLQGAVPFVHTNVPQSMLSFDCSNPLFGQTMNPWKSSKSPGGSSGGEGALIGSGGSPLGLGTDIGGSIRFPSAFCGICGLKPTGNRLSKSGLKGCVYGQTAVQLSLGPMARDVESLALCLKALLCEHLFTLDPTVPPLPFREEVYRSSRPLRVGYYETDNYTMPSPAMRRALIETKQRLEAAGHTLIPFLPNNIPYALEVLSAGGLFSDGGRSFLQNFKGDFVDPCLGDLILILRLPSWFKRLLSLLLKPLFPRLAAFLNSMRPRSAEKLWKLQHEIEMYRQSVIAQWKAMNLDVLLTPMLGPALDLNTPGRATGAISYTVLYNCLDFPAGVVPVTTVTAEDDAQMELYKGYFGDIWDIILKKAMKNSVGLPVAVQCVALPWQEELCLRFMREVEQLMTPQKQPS
The experiment can be described thus: Assay Method 2: FAAH assay, hydrolysis of 3H-anandamide by homogenate of SK-N-MC cells transfected with rat FAAH. The format is biochemical. The following applies: T84 or transfected SK-N-MC cell homogenate, 3H-AEA tracer 80 nM, rt 1 h, pH 9. The procedure, abridged: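 Rat FAAH activity from homogenate of G418-selected, electroporated SK-N-MC clones was measured as release of radiolabelled ethanolamine from 3H-anandamide. After 1 h at rt, charcoal filtration retained substrate, and scintillation counting of the flow-through gave the read-out.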

Experiment [2] deals with T2, human FAAH (Homo sapiens, UniProt O00519).
T2 construct: expressed in transfected cells
T2 sequence (O00519 1-579): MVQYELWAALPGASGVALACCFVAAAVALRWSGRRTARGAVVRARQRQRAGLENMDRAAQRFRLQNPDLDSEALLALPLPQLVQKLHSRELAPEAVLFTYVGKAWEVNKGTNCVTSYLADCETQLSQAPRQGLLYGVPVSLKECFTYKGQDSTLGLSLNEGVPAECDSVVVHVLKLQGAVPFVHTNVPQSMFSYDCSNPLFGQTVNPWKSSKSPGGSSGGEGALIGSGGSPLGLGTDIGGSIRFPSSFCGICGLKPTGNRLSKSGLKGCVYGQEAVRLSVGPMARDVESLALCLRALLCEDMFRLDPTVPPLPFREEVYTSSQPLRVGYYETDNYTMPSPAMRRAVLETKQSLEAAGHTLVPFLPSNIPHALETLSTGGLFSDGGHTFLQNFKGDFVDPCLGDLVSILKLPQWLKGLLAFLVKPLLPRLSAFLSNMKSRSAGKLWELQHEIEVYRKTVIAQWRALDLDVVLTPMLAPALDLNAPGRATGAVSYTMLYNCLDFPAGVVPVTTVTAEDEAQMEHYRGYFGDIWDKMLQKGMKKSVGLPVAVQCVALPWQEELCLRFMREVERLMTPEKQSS
Briefly: Assay Method 1: FAAH assay, hydrolysis of 3H-anandamide by homogenate of SK-N-MC cells transfected with human FAAH. It is filed as biochemical. The following applies: human FAAH; T84 or transfected SK-N-MC cell homogenate; 3H-AEA tracer 80 nM; rt 1 h; pH 9; read-out: Assay 1 IC50. In a few lines:
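Homogenate of SK-N-MC cells stably expressing human FAAH (G418-selected clones) incubated with compound and 80 nM [1-3H-ethanolamine]anandamide for 1 h at rt. Released 3H-ethanolamine separated from substrate by activated-charcoal filtration, then counted by scintillation.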

For the molecule `O=C(CCCC1CCN(Cc2ccc(F)cc2)CC1)c1ncco1` [Example 7, 4-[1-(4-Fluoro-benzyl)-piperidin-4-yl]-1-oxazol-2-yl-butan-1-one], the IC50 in experiment [1] is 1000 nM; in experiment [2], 850 nM.

In the case of `CCCCS(=O)(=O)N1CCC(CCCC(=O)c2ncco2)CC1` [Example 58, 4-[1-(Butane-1-sulfonyl)-piperidin-4-yl]-1-oxazol-2-yl-butan-1-one], the values for the IC50 in experiment [1] and in experiment [2] were 720 nM and 60 nM, respectively.

On to `O=C(CCCC1CCN(Cc2ccco2)CC1)c1ncco1` [Example 118, 4-(1-Furan-2-ylmethyl-piperidin-4-yl)-1-oxazol-2-yl-butan-1-one], for which the figures for the IC50 in experiment [1] and in experiment [2] were 935 nM and 354 nM, respectively.

Take `O=C(CCCC1CCN(Cc2c(F)cc(F)cc2F)CC1)c1ncco1` [Example 123, 1-Oxazol-2-yl-4-[1-(2,4,6-trifluoro-benzyl)-piperidin-4-yl]-butan-1-one]: the IC50 came to 280 nM in experiment [1] and 200 nM in experiment [2].

For the molecule `COC(=O)c1cccc(-c2cnc(C(=O)CCCC3CCN(Cc4ccc(C(C)C)cc4)CC3)o2)n1` [Example 147, 6-(2-[4-{1-(4-Isopropyl-benzyl)-piperidin-4-yl]-butyryl}-oxazol-5-yl)-pyridine-2-carboxylic acid methyl ester], the IC50 in experiment [1] was found to be 8 nM; in experiment [2], 18 nM.

As for `O=C(CCCC1CCN(C(=O)CCC2CCCC2)CC1)c1ncco1` [Example 32, 4-[1-(3-Cyclopentyl-propionyl)-piperidin-4-yl]-1-oxazol-2-yl-butan-1-one], the IC50 is 112 nM in experiment [1] and 28 nM in experiment [2].

`Cc1ccc2nc(Cl)c(CN3CCC(CCCC(=O)c4ncco4)CC3)cc2c1` [Example 98, 4-[1-(2-Chloro-6-methyl-quinolin-3-ylmethyl)-piperidin-4-yl]-1-oxazol-2-yl-butan-1-one]: the IC50 is 7 nM in experiment [1] and 0.4 nM in experiment [2].

For the molecule `O=C(CCCC1CCN(Cc2cccc(Cl)c2)CC1)c1ncco1` [Example 10, 4-[1-(3-Chloro-benzyl)-piperidin-4-yl]-1-oxazol-2-yl-butan-1-one], the results for the IC50 in experiment [1] and in experiment [2] were 80 nM and 60 nM, respectively.

Turning to `O=C(CCCC1CCN(Cc2cnc3ccccc3n2)CC1)c1ncco1` [Example 117, 1-Oxazol-2-yl-4-(1-quinoxalin-2-ylmethyl-piperidin-4-yl)-butan-1-one], the IC50 was 277 nM in experiment [1] and 175 nM in experiment [2].

On to `Cc1cccc(CN2CCC(CCCC(=O)c3ncco3)CC2)c1` [Example 19, 4-[1-(3-Methyl-benzyl)-piperidin-4-yl]-1-oxazol-2-yl-butan-1-one], for which the IC50 in experiment [1] is 305 nM; in experiment [2], 90 nM.

Take `O=C(CCCC1CCN(Cc2ccc(Br)cc2)CC1)c1ncco1` [Example 91, 4-[1-(4-Bromo-benzyl)-piperidin-4-yl]-1-oxazol-2-yl-butan-1-one]: the IC50 in experiment [1] came out at 270 nM; in experiment [2], 45 nM.

As to `Cc1ccc(S(=O)(=O)N2CCC(CCCC(=O)c3ncc(-c4cccc(C(=O)O)n4)o3)CC2)cc1` [Example 151, 6-(2-{4-[1-(Toluene-4-sulfonyl)-piperidin-4-yl]-butyryl}-oxazol-5-yl)-pyridine-2-carboxylic acid trifluoroacetic acid salt], the IC50 was determined as 25 nM in experiment [1] and 21 nM in experiment [2].

As for `O=C(CCCC1CCN(Cc2ccc(F)c(Cl)c2)CC1)c1ncco1` [Example 13, 4-[1-(3-Chloro-4-fluoro-benzyl)-piperidin-4-yl]-1-oxazol-2-yl-butan-1-one], the IC50 came out at 180 nM in experiment [1] and 50 nM in experiment [2].

For `Cc1ccc(Oc2ccc(CN3CCC(CCCC(=O)c4ncco4)CC3)cn2)cc1` [Example 96, 1-Oxazol-2-yl-4-[1-(6-p-tolyloxy-pyridin-3-ylmethyl)-piperidin-4-yl]-butan-1-one], the IC50 in experiment [1] stood at 132 nM; in experiment [2] it was 125 nM.

In the case of `O=C(CCCC1CCN(Cc2ccc(Cl)nc2)CC1)c1ncco1` [Example 75, 4-[1-(6-Chloro-pyridin-3-ylmethyl)-piperidin-4-yl]-1-oxazol-2-yl-butan-1-one], the IC50 was found to be 1000 nM in experiment [1] and 600 nM in experiment [2].

On to `CC(c1ccccc1)N1CCC(CCCC(=O)c2ncco2)CC1` (stereo not shown) [Example 142, 1-Oxazol-2-yl-4-[1-(1-phenyl-ethyl)-piperidin-4-yl]-butan-1-one], for which the IC50 is 3000 nM in experiment [1] and 190 nM in experiment [2].

Turning to `CC(C)COC(=O)N1CCC(CCCC(=O)c2ncco2)CC1` [Example 68, 4-(4-Oxazol-2-yl-4-oxo-butyl)-piperidine-1-carboxylic acid isobutyl ester], the results for the IC50 in experiment [1] and in experiment [2] were 55 nM and 10 nM, respectively.

`O=C(CCCC1CCN(Cc2ccccc2)CC1)c1ncco1` [Example 3, 4-(1-Benzyl-piperidin-4-yl)-1-oxazol-2-yl-butan-1-one]: the IC50 came to 900 nM in experiment [1] and 315 nM in experiment [2].

As for `O=C(CCCC1CCN(C(=O)Cc2cccc(Cl)c2)CC1)c1ncco1` [Example 41, 4-{1-[2-(3-Chloro-phenyl)-acetyl]-piperidin-4-yl}-1-oxazol-2-yl-butan-1-one], the results for the IC50 in experiment [1] and in experiment [2] were 712 nM and 640 nM, respectively.

`O=C(CCCC1CCN(Cc2ccc(N3CCCCC3)nc2)CC1)c1ncco1` [Example 108, 1-oxazol-2-yl-4-[1-(3,4,5,6-tetrahydro-2H-[1,2′]bipyridinyl-5′-ylmethyl)-piperidin-4-yl]-butan-1-one]: the IC50 in experiment [1] worked out at 235 nM; in experiment [2], 23 nM.

For `O=C(CCCC1CCN(Cc2ccc3c(c2)OC(F)(F)O3)CC1)c1ncco1` [Example 125, 4-[1-(2,2-Difluoro-benzo[1,3]dioxol-5-ylmethyl)-piperidin-4-yl]-1-oxazol-2-yl-butan-1-one], the IC50 was 81 nM in experiment [1] and 4 nM in experiment [2].

Regarding `O=C(CCCC1CCN(Cc2ccc(Oc3ccccc3)cc2)CC1)c1ncco1` [Example 15, 1-Oxazol-2-yl-4-[1-(4-phenoxy-benzyl)-piperidin-4-yl]-butan-1-one], the IC50 turned out to be 2.4 nM in experiment [1] and 4 nM in experiment [2].

Take `O=C(CCCC1CCN(Cc2cccc(F)c2)CC1)c1ncco1` [Example 8, 4-[1-(3-Fluoro-benzyl)-piperidin-4-yl]-1-oxazol-2-yl-butan-1-one]: the figures for the IC50 in experiment [1] and in experiment [2] were 350 nM and 100 nM, respectively.

In the case of `O=C(CCCC1CCN(Cc2ccc3c(c2)OCO3)CC1)c1ncco1` [Example 14, 4-(1-Benzo[1,3]dioxol-5-ylmethyl-Piperidin-4-yl)-1-oxazol-2-yl-butan-1-one], the IC50 was found to be 1000 nM in experiment [1] and 86 nM in experiment [2].

Turning to `O=C(CCCC1CCN(Cc2ccc(Cl)c(C(F)(F)F)c2)CC1)c1ncco1` [Example 133, 4-[1-(4-Chloro-3-trifluoromethyl-benzyl)-piperidin-4-yl]-1-oxazol-2-yl-butan-1-one], the IC50 in experiment [1] turned out to be 2000 nM; in experiment [2] it was 460 nM.

Take `O=C(CCCC1CCN(Cc2ccc3cccnc3n2)CC1)c1ncco1` [Example 116, 4-(1-[1,8]Naphthyridin-2-ylmethyl-piperidin-4-yl)-1-oxazol-2-yl-butan-1-one]: the values for the IC50 in experiment [1] and in experiment [2] were 7000 nM and 370 nM, respectively.

As for `CC(C)C(=O)N1CCC(CCCC(=O)c2ncco2)CC1` [Example 30, 4-(1-Isobutyryl-piperidin-4-yl)-1-oxazol-2-yl-butan-1-one], the IC50 in experiment [1] is 2250 nM; in experiment [2], 250 nM.

On to `Cc1ccc(CC(=O)N2CCC(CCCC(=O)c3ncco3)CC2)cc1` [Example 38, 1-Oxazol-2-yl-4-[1-(2-p-tolyl-acetyl)-piperidin-4-yl]-butan-1-one], for which the IC50 in experiment [1] and in experiment [2] was 100 nM each time.

For `CC(C)(C)c1ccc(CN2CCC(CCCC(=O)c3ncco3)CC2)cc1` [Example 83, 4-[1-(4-tert-Butyl-benzyl)-piperidin-4-yl]-1-oxazol-2-yl-butan-1-one], the IC50 in experiment [1] worked out at 84 nM; in experiment [2], 7 nM.
